Source: paper PMC8196787, “Design and Pharmacodynamics of Recombinant Fungus Defensin NZL with Improved Activity against Staphylococcus hyicus In Vitro and In Vivo” (International Journal of Molecular Sciences, 2021)
Values after ≈ are worked out from the molar mass of the structure shown. Values joined by “and” are separate entries in the source; they are usually repeats but may differ in a detail not shown here. Equal entries are not always repeated. Where two headings read alike, the source gives them in different places. Positions of bridges follow the written chain, without caps; N, C: chain ends. Residues, ends and D or L forms follow the SMILES beside them.

Key:
S. hyicus ACCC 61734 = test: microbe, parasite or virus in culture; type: cell-based; conditions: for MIC: S. hyicus ACCC 61734 (clinical strain), microbroth dilution, MHB, 37 °C, 16–20 h, triplicate, read-out: MIC
Experimental: (§1) The microbroth dilution method was used to evaluate the MIC values of new derivative peptides. […] The MIC value was defined as the lowest concentration where no visible bacteria growth occurred after overnight incubation. CRO was used as the positive control. All assays were conducted in triplicate.

S. hyicus NCTC 10350 [1] = test: microbe, parasite or virus in culture; type: cell-based; conditions: MHB, 37 °C, 16–20 h, triplicate
Experimental: as §1

S. aureus ATCC 43300 = test: microbe, parasite or virus in culture; type: cell-based; conditions: read-out: MIC
Experimental: as §1

S. aureus ATCC 25923 = test: microbe, parasite or virus in culture; type: cell-based; conditions: MHB, 37 °C, 16–20 h, triplicate
Experimental: as §1

[2] = test system: intracellular S. hyicus NCTC 10350 in Hacat cells; type: cell-based; conditions: 24 h treatment, mean, n = 3; for Killing rate of intracellular S. hyicus: 1000× MIC
Experimental: Hacat cells (2.5 × 10^5 cells/mL) were dispensed into a 12-well plate for 24 h. Besides, the mid-log phase S. hyicus NCTC 10350 (2.5 × 10^7 CFU/mL) were coincubated with Hacat cells for 0.5 h. Then, lysostaphin was supplemented to kill extracellular bacteria. Hereafter, cells were treated with peptides or CRO for 24 h and lysed with lysis buffer. The intracellular bacteria were processed for colony counting.

Hacat cells = test: Cytotoxicity, MTT assay; type: cell-based; conditions: within 256 μg/mL (1–256 μg/mL), n = 3
Experimental: The cytotoxicity of peptides toward Hacat cells was determined by the 3-(4,5-dimethylthiazol-2-yl)-2,5-diphenyltetrazolium bromide (MTT) assay according to a previous study.

S. hyicus NCTC 10350 [3] = test: Thermal stability, inhibition zone assay; type: physicochemical; conditions: 1 h, 64 μg/mL, inhibition zone against S. hyicus NCTC 10350, triplicate
Experimental: (§2) The stability of NZL or NZ2114 against S. hyicus NCTC 10350 was conducted by inhibition zone assays. To evaluate the thermal stability, 64 μg/mL NZL or NZ2114 was incubated at different temperatures (20 °C, 40 °C, 60 °C, 80 °C, and 100 °C) for 1 h. Besides, aliquots of NZL or NZ2114 were dissolved in different pH buffers in a range from 2.0 to 10.0 at 37 °C for 3 h to analyze the pH stability. NZL or NZ2114 was mixed with pepsin or trypsin solutions at a ratio of 10:1 (w/w) to determine the protease stability. The untreated peptides and buffers alone were used as positive controls and negative controls, respectively. All assays were conducted in triplicate.

S. hyicus NCTC 10350 [4] = test: Time-killing curves; type: cell-based
Experimental: Time-kill curves were performed to assess the bactericidal rates of peptides against S. hyicus NCTC 10350 [25]. […] The samples were taken at regular intervals for colony counting. Cells treated with PBS and CRO were used as the negative control and positive control.

mouse erythrocytes = test: Hemolysis; type: cell-based; conditions: at 256 μg/mL; 8% (v/v) mouse erythrocytes in 0.9% NaCl, 37 °C, 1 h, 540 nm; n = 3
Experimental: The hemolytic activity of peptides against fresh mouse erythrocytes was evaluated as described previously. In brief, 8% (v/v) erythrocyte solution in 0.9% NaCl was mixed with peptide solution (1–256 μg/mL) in an equal volume; then the mixtures were incubated at 37 °C for 1 h, centrifuged at 5000 rpm for 5 min and measured at 540 nm on a microplate reader. The absorbance of 0.9% NaCl (A0) and 0.1% Triton X-100 (A100) was used as controls. The hemolysis percentages of peptide were calculated by the following equation: Hemolysis (%) = [(A − A0)/(A100 − A0)] × 100.

S. hyicus NCTC 10350 [5] = test: Mouse peritonitis model, organ injury by light microscope; type: in vivo; conditions: 10 mg/kg, organs harvested at 5 d
Experimental: (§3) Likewise, mice (15 mice/group) were injected with the exponential phase S. hyicus NCTC 10350 cells (1 × 10^9 CFU/mL, 1 mL) and treated with 10 mg/kg peptides or 60 mg/kg CRO. After 2 and 24 h post-treatment, sera were collected to test the levels of cytokines using enzyme linked immunosorbent assay (ELISA) kit. To evaluate bacterial translocation, organs were harvest from mice at 24-h post-treatment for colony counting; then, organs were removed from mice at 5 d post-treatment and observed through a light microscope to assess organ injury. The uninfected mice, the treated mice with CRO or PBS were served as the blank control, positive and negative control, respectively.

S. hyicus NCTC 10350 [6] = test: Mouse peritonitis model, survival; type: in vivo; conditions: 7 days
Experimental: The mice (6 mice/group) were intraperitoneally infected with the exponential phase S. hyicus NCTC 10350 cells (1 × 10^9 CFU/mL, 1 mL) to establish a mouse peritonitis model. […] Survival of mice was recorded daily for 7 days.

S. hyicus NCTC 10350 [7] = test: pH stability, inhibition zone assay; type: physicochemical; conditions: 3 h, triplicate
Experimental: as §2

TNF-α = test: Mouse peritonitis model, serum cytokine ELISA; type: in vivo
Experimental: as §3

IL-1β = test: Mouse peritonitis model, serum cytokine ELISA; type: in vivo
Experimental: as §3

IL-6 = test: Mouse peritonitis model, serum cytokine ELISA; type: in vivo
Experimental: as §3

S. hyicus NCTC 10350 [8] = test: Mouse peritonitis model, bacterial translocation; type: in vivo; conditions: 24 h post-treatment, mean, n = 5
Experimental: as §3

[9] = microbroth dilution, read-out: MIC

With `CC[C@H](C)[C@@H]1NC(=O)[C@H](CO)NC(=O)[C@H](CCCCN)NC(=O)[C@@H]2CSSC[C@@H](C(=O)N[C@@H](Cc3ccc(O)cc3)C(=O)O)NC(=O)[C@H](CCCCN)NC(=O)[C@@H]3CSSC[C@H](NC(=O)[C@H](CCC(N)=O)NC(=O)[C@H]([C@@H](C)CC)NC(=O)[C@H](CC(=O)O)NC(=O)[C@H](CC(=O)O)NC(=O)[C@H](CCC(=O)O)NC(=O)[C@H](CO)NC(=O)[C@H](Cc4c[nH]c5ccccc45)NC(=O)[C@@H]4CCCN4C(=O)CNC(=O)[C@H](CC(N)=O)NC(=O)[C@@H](NC(=O)CNC(=O)[C@H](Cc4ccccc4)NC(=O)CN)CSSC[C@H](NC(=O)[C@H](Cc4ccc(O)cc4)NC(=O)CNC(=O)CNC(=O)[C@H](CCCCN)NC(=O)[C@H](Cc4ccc(O)cc4)NC(=O)CNC(=O)[C@H](CCCCN)NC1=O)C(=O)N[C@@H](C)C(=O)N[C@@H](CCCCN)C(=O)NCC(=O)NCC(=O)N[C@@H](Cc1ccccc1)C(=O)N[C@@H](C(C)C)C(=O)N3)C(=O)N[C@@H](Cc1c[nH]cn1)C(=O)N[C@@H](CC(N)=O)C(=O)N[C@@H](Cc1c[nH]cn1)C(=O)N2` [NZL] (H-GFGCNGPWSEDDIQCHNHCKSIKGYKGGYCAKGGFVCKCY-OH; disulfide 4-30, 15-37, 19-39; N-terminus and C-terminus assumed) the MIC (S. hyicus ACCC 61734) was 0.23 µM (≈ 1 µg/mL), the “Change of MIC against S. hyicus ACCC 61734 compared with NZ2114” value (S. hyicus ACCC 61734; clinical strain, NZL vs NZ2114) was “four-fold” and the MIC (S. hyicus NCTC 10350 [1]; microbroth dilution) was 4 µg/mL. For the same compound, the MIC (S. hyicus NCTC 10350 [1]; [9]) was 0.92 µM, the MIC (S. aureus ATCC 43300; S. aureus ATCC 43300, microbroth dilution, MHB, 37 °C, 16–20 h, triplicate) was 0.46 µM and the MIC (S. aureus ATCC 25923; microbroth dilution) was 4 µg/mL. The MIC (S. aureus ATCC 25923; [9]) was 0.92 µM, the “Decrease of intracellular S. hyicus” value ([2]; 10× MIC) was 84.95% and the “Killing rate of intracellular S. hyicus” value [2] was 99.96%. The Minimum cell viability (Hacat cells) was 60.28%, the Thermal stability (S. hyicus NCTC 10350 [3]; 20 to 80 °C) was “good thermal stability” and the Activity after heating (S. hyicus NCTC 10350 [3]; 100 °C) was “no activity”. The “Reduction of bacterial counts” value (S. hyicus NCTC 10350 [4]; 1× MIC, MHB) was 7.37 Log10 CFU/mL, the “Time within which S. hyicus NCTC 10350 cells were killed completely” value (S. hyicus NCTC 10350 [4]; 2× and 4× MIC, 1 × 10^5 CFU/mL in MHB, colony counting) was ≤ 8 h and the Maximum hemolysis (mouse erythrocytes) was 1.11%. For the same compound, the “Organ injury (livers, spleens, lungs, kidneys)” value (S. hyicus NCTC 10350 [5]) was “apparently less damaged”, the Survival rate (S. hyicus NCTC 10350 [6]; 5 mg/kg i.p. at 2 h and 8 h post-infection, ICR mice, S. hyicus NCTC 10350 10^9 CFU i.p., 6 mice/group) was 50% and the Survival rate (S. hyicus NCTC 10350 [6]; 10 mg/kg i.p. at 2 h and 8 h post-infection, ICR mice, S. hyicus NCTC 10350 10^9 CFU i.p., 6 mice/group) was 83.3%. For the same compound, the pH stability (S. hyicus NCTC 10350 [7]; pH 2 to 10, 37 °C, inhibition zone against S. hyicus NCTC 10350) was “retained strong stable activity”, the “Activity in the acidic environment” value (S. hyicus NCTC 10350 [7]; pH 4, 37 °C, inhibition zone against S. hyicus NCTC 10350, relative to untreated peptide) was 94% and the “Serum level of TNF-α” value (TNF-α; 10 mg/kg, 2 h after treatment) was 184.14 pg/mL. The “Serum level of TNF-α” value (TNF-α; 10 mg/kg, 24 h after treatment) was 5.75 pg/mL, the “Serum level of IL-1β” value (IL-1β; 10 mg/kg, 2 h after treatment) was 74.00 pg/mL and the “Serum level of IL-1β” value (IL-1β; 10 mg/kg, 24 h after treatment) was 24.02 pg/mL. The “Serum level of IL-6” value (IL-6; 10 mg/kg, 2 h after treatment) was 1029.28 pg/mL, the “Serum level of IL-6” value (IL-6; 10 mg/kg, 24 h after treatment) was 44.92 pg/mL and the “Bacterial counts in blood” value (S. hyicus NCTC 10350 [8]; 10 mg/kg) was 0.16 Log10 CFU/0.1 g. The “Bacterial counts in kidneys” value (S. hyicus NCTC 10350 [8]; 10 mg/kg) was 0.25 Log10 CFU/0.1 g, the “Bacterial counts in livers” value (S. hyicus NCTC 10350 [8]; 10 mg/kg) was 0.34 Log10 CFU/0.1 g and the “Bacterial counts in lungs” value (S. hyicus NCTC 10350 [8]; 10 mg/kg) was 0.62 Log10 CFU/0.1 g. The “Bacterial counts in spleens” value (S. hyicus NCTC 10350 [8]; 10 mg/kg) was 0.58 Log10 CFU/0.1 g.

With `CO/N=C(\C(=O)N[C@@H]1C(=O)N2C(C(=O)O)=C(CSc3nc(=O)c(=O)[nH]n3C)CS[C@H]12)c1csc(N)n1` [CRO, ceftriaxone, reference compound] the MIC (S. hyicus ACCC 61734; Staphylococcus hyicus, ACCC61734) was 4 µg/mL and 6.04 µM, the MIC (S. hyicus NCTC 10350 [1]; Staphylococcus hyicus, NCTC10350, microbroth dilution, read-out: MIC) was 8 µg/mL and 12.1 µM and the MIC (S. aureus ATCC 43300; Staphylococcus aureus, ATCC43300, S. aureus ATCC 43300, microbroth dilution, MHB, 37 °C, 16–20 h, triplicate) was 12.1 µM. For the same compound, the MIC (S. aureus ATCC 43300; Staphylococcus aureus, ATCC43300) was 8 µg/mL, the MIC (S. aureus ATCC 25923; Staphylococcus aureus, ATCC25923, microbroth dilution, read-out: MIC) was 4 µg/mL and 6.04 µM and the “Decrease of intracellular S. hyicus” value ([2]; 1× MIC, colony counting) was 88.53%. The “Decrease of intracellular S. hyicus” value ([2]; 5× MIC) was 89.25%, the “Decrease of intracellular S. hyicus” value ([2]; 10× MIC) was 83.87% and the “Killing rate of intracellular S. hyicus” value [2] was 97.6%. For the same compound, the “Bacterial count at regrowth” value (S. hyicus NCTC 10350 [4]; 2× MIC, at 24 h) was 5.65 Log10 CFU/mL, the Survival rate (S. hyicus NCTC 10350 [6]; 30 mg/kg and 60 mg/kg i.p. at 2 h and 8 h post-infection, compared with NZL 5 mg/kg and 10 mg/kg) was “identical survival rates with NZL” and the “Serum level of TNF-α” value (TNF-α; 60 mg/kg, 2 h after treatment) was 233.16 pg/mL. For the same compound, the “Serum level of TNF-α” value (TNF-α; 60 mg/kg, 24 h after treatment) was 3.43 pg/mL, the “Serum level of IL-1β” value (IL-1β; 60 mg/kg, 2 h after treatment) was 94.75 pg/mL and the “Serum level of IL-1β” value (IL-1β; 60 mg/kg, 24 h after treatment) was 11.60 pg/mL. The “Serum level of IL-6” value (IL-6; 60 mg/kg, 2 h after treatment) was 981.56 pg/mL, the “Serum level of IL-6” value (IL-6; 60 mg/kg, 24 h after treatment) was 85.74 pg/mL and the “Bacterial counts in blood” value (S. hyicus NCTC 10350 [8]; 60 mg/kg) was 1.02 Log10 CFU/0.1 g. For the same compound, the “Bacterial counts in kidneys” value (S. hyicus NCTC 10350 [8]; 60 mg/kg) was 4.69 Log10 CFU/0.1 g, the “Bacterial counts in livers” value (S. hyicus NCTC 10350 [8]; 60 mg/kg) was 4.35 Log10 CFU/0.1 g and the “Bacterial counts in lungs” value (S. hyicus NCTC 10350 [8]; 60 mg/kg) was 5.21 Log10 CFU/0.1 g. For the same compound, the “Bacterial counts in spleens” value (S. hyicus NCTC 10350 [8]; 60 mg/kg) was 5.19 Log10 CFU/0.1 g.
